Measured values taken from patent publication US20170326155A1, “NOVEL PHARM[…] FOR NEUROMUSCULAR CONTRACTURES” (Children's Hospital Medical Center, priority 2016, published 2017).

Assays:
[1] = system: adult skeletal muscle regeneration; conditions: not tested in pediatric neuromuscular conditions; cited from earlier work
[2] = system: shoulder contractures following NBPI; test: Mouse model of neonatal brachial plexus injury (NBPI), muscle contracture formation; format: in vivo, mice; conditions: for severity of shoulder contractures: single systemic dose following NBPI, 4 weeks post NBPI, compared to controls, preliminary experiment
Text: Experimental Model: Unilateral brachial plexus injuries are surgically created at 5 days of age in mice. The immediate paralysis mimics that of the human condition, and can be modulated by different surgical techniques of nerve injury. Within 4 weeks after NBPI, muscle contractures form at the shoulder and elbow, replicating the human contractures. (Not shown.) Muscles can be harvested for analysis of growth and cellular behavior. The use of unilateral injuries preserves the contralateral limb as a control, minimizing the number of mice required.

Structure (SMILES)	adult skeletal muscle regeneration [1]	contracture severity following NBPI ([2]; neonatal treatment, preliminary)	severity of shoulder contractures [2]	severity of shoulder contractures ([2]; listed as nandrolone)
CCCCc1nc(Cl)c(CO)n1Cc1ccc(-c2ccccc2-c2nn[nH]n2)cc1 [losartan]	improve adult skeletal muscle regeneration			
C[C@]12CC[C@H]3[C@@H](CCC4=CC(=O)CC[C@@H]43)[C@@H]1CC[C@@H]2O [Nandrolone]		lessened contracture severity	lessened the severity of shoulder contractures	decreased the severity of the shoulder contracture
